Measured values: patent publication US20080286301A1, “Treatment of diabetes” (priority 1997, published 2008)
Entries after “also recorded” stand apart in the source; their conditions may differ.

Columns and labels:
Type in all cases: in vivo, human
[1] = test system: subjects with remission phase Type I diabetes; assay: Sustacal meal with intravenous GLIP infusion 1.2 pm/kg/min (Example 1); settings: IV GLIP 1.2 pm/kg/min for 120 min after Sustacal meal; for gastrin levels / gastrin response: FIG. 1 Panel E
Protocol: 7 subjects with remission phase Type I diabetes were studied after ingestion of a standardised meal of Sustacal (Upjohn) (delivering […]). Subjects continued their normal insulin treatment programme on the day prior to the test and, on the day of the test, omitted their morning insulin injection and arrived fasting at 8:00 am. […] Infusion was continued for 120 minutes. Blood levels of glucose, C-peptide, gastrin, glucagon and HPP were monitored by standard radioimmunoassay methods in samples taken before and at intervals during the study, up to 180 minutes. On another test day, subjects were given the Sustacal meal alone and the same analytes were similarly monitored.

[2] = test system: subjects with remission phase Type I diabetes; assay: Intravenous glucose infusion with intravenous GLIP (Example 2); settings: IV GLIP 1.2 pm/kg/min for 60 min along with IV glucose 20 g over 60 min; FIG. 2
[3] = test system: subjects with remission phase Type I diabetes; assay: Sustacal meal with infusion of 0.75 pm/kg/min GLIP (Example 3); settings: versus saline infusion control, FIG. 3
Protocol: Four subjects with remission phase Type I diabetes were studied during infusion with 0.75 pm/kg/min-GLIP for 120 minutes after a Sustacal meal.
The test was conducted as described in Example 1 and blood glucose and C-peptide levels were measured. On a further test day, the subjects were studied during saline infusion after a similar Sustacal meal.

[4] = test system: normal volunteers; assay: Sustacal meal preceded by subcutaneous injection of GLIP in normal volunteers (Example 4); settings: 100 μg GLIP sc before Sustacal meal
Text: Results are shown in FIG. 4. *indicates statistically significant differences between treatments (p<0.05).

[5] = test system: Type I diabetic subjects; assay: Sustacal meal preceded by subcutaneous injection of 100 μg GLIP in Type I diabetics (Example 5); settings: 100 μg GLIP sc prior to test meal
Text: Type I diabetic subjects were studied.
The results are shown in FIG. 5. *indicates statistically significant differences between treatments (p<0.05).

[6] = test system: Type 1 diabetic subject; assay: GLIP along with insulin subcutaneously prior to Sustacal meal, post-prandial glycaemia (Example 6); settings: 50 μg GLIP sc along with 5 units insulin (half the usual dose) prior to Sustacal meal; one subject; FIG. 6 Panel A
Protocol: (§1) One Type 1 diabetic subject was given GLIP along with insulin and the effects on post-prandial glycaemia observed. The subject received 5 units of insulin and 50 μg GLIP as subcutaneous injections immediately prior to ingestion of a Sustacal meal as described in Example 1. Blood levels of GLIP were monitored by a standard radioimmunoassay method.

[7] = Blood levels of GLIP by radioimmunoassay after subcutaneous injection (Example 6); settings: 50 μg GLIP sc with 5 units insulin, Type I diabetic subject; FIG. 6 Panel E
Protocol: as §1

## Glucagon-like peptide 1(7-36)amide [GLIP]
[1]; FIG. 1
  blood levels of C-peptide: prevented a significant increase in blood levels of C-peptide
  plasma glucagon levels stimulated by the meal: prevented the mean rise in plasma glucagon levels
[1]; FIG. 1 Panel C
  secretion of pancreatic polypeptide (PP) after the meal: this response was absent
[1]
  gastrin levels / gastrin response: not significantly affected
[1]; listed as CLIP
  gastrin levels / gastrin response: normal gastrin response
[2]
  control of blood glucose level: improved control of blood glucose level
[3]; lower dose of GLIP (0.75 pmol/kg/min) along with a meal
  C-peptide: some increase
[3]; lower dose of GLIP (0.75 μmol/kg/min) along with a meal
  blood glucose: some increase; also recorded: less than in the control experiment
[4]
  increase in blood levels of C-peptide: delay in increase
  increase in blood levels of HPP: delay in increase
  increase in blood levels of glucose: delay in increase
  increase in blood levels of insulin: delay in increase
[5]; FIG. 5 Panel A
  blood glucose levels compared to control: lowering of blood glucose levels
[5]; FIG. 5 Panel D
  pancreatic polypeptide (HPP) levels: delayed rise in pancreatic polypeptide (HPP) levels
[5]; FIG. 5 Panels B and C
  insulin secretion over control levels: no enhancement of insulin secretion over control levels
[6]
  blood glucose after standard meal (highest level): ≤ 8 mM
[7]
  time to clearance from the blood: about two
